The test has as its target p53-MDM2 interaction (GST-MDM2 protein aa 23-117 / biotinylated p53 wt peptide) (Homo sapiens (Human), UniProt Q00987). Description: MDM2-p53 Inhibition AlphaScreen. The class given is biochemical. The settings on record: 20 nM GST-MDM2 (aa 23-117), 20 nM biotinylated p53 wt peptide. From the text: MDM2-p53 Inhibition AlphaScreen
(In general: In Alpha technology, singlet oxygen from a donor bead excites a nearby acceptor bead.)

Here are results for 51 molecules from patent US10576064B2, “Spiro[3H-indole-3,2′-pyrrolidin]-2(1H)-one compounds and derivatives as MDM2-P53 inhibitors” (Boehringer Ingelheim International GmbH, priority 2014, dated 2020).

The IC50 is the concentration that inhibits the measured activity by half. Low values mean higher potency, high ones lower potency. As to `O=C1NCC[C@H]2[C@@H]1[C@H](c1cccc(Cl)c1F)[C@]1(C(=O)Nc3cc(Cl)ccc31)N2CC1CC1` [Compound I-1], the IC50 came out at 0.086 µM.

On to `O=C1NCC[C@H]2[C@@H]1[C@H](c1cccc(Cl)c1F)[C@]1(C(=O)Nc3cc(Cl)ccc31)N2CC1CC1` [Compound I-2], for which the midpoint of inhibition, the IC50, lay at 0.112 µM.

`O=C1NCC[C@H]2[C@@H]1[C@H](c1cccc(Cl)c1)[C@]1(C(=O)Nc3cc(Cl)ccc31)N2CC1CC1` [Compound I-3]: the midpoint of inhibition, the IC50, lay at 0.263 µM.

For the molecule `CCOc1cccc(CN2[C@H]3CCNC(=O)[C@H]3[C@H](c3cccc(Cl)c3F)[C@]23C(=O)Nc2cc(Cl)ccc23)c1` [Compound I-5], it took 0.017 µM to reach half-maximal inhibition (IC50).

With `CCOc1cccc(CN2[C@H]3CCNC(=O)[C@H]3[C@H](c3cccc(Cl)c3)[C@]23C(=O)Nc2cc(Cl)ccc23)c1` [Compound I-7], the IC50 is 0.03 µM.

As to `CCOc1cccc(CN2[C@H]3CCNC(=O)[C@H]3[C@H](c3cccc(Cl)c3F)[C@]23C(=O)Nc2nc(Cl)ccc23)c1` [Compound I-9], the IC50 was found to be 0.03 µM.

`O=C1NCC[C@H]2[C@@H]1[C@H](c1cc(Br)cc(Cl)c1F)[C@]1(C(=O)Nc3cc(Cl)ccc31)N2CC1CC1` [Compound I-11] gave an IC50 of 0.462 µM.

In turn, `CC1CC1CN1[C@H]2CCNC(=O)[C@H]2[C@H](c2cccc(Cl)c2F)[C@]12C(=O)Nc1cc(Cl)ccc12` (stereo partly drawn) [Compound I-13] had an IC50 of 0.272 µM.

On to `CC(C)(C)CN1[C@H]2CCNC(=O)[C@H]2[C@H](c2cccc(Cl)c2F)[C@]12C(=O)Nc1cc(Cl)ccc12` [Compound I-15], for which the 50% inhibitory concentration (IC50) is 0.152 µM.

In the case of `O=C1NCC[C@H]2[C@@H]1[C@H](c1cccc(Cl)c1F)[C@]1(C(=O)Nc3cc(Cl)c(F)cc31)N2CC1CC1` [Compound I-17], the IC50 was 0.324 µM.

On to `O=C1NCC[C@H]2[C@@H]1[C@H](c1cccc(Cl)c1F)[C@]1(C(=O)Nc3cc(Cl)ccc31)N2CC1CCC1` [Compound I-19], for which it took 0.24 µM to reach half-maximal inhibition (IC50).

`O=C1NCC[C@H]2[C@@H]1[C@H](c1cccc(Cl)c1F)[C@]1(C(=O)Nc3cc(Br)ccc31)N2CC1CC1` [Compound I-21]: the IC50 is 0.064 µM.

With `Cc1ccc2c(c1)NC(=O)[C@]21[C@@H](c2cccc(Cl)c2F)[C@@H]2C(=O)NCC[C@@H]2N1CC1CC1` [Compound I-23], the IC50 stood at 0.29 µM.

The molecule `O=C1NCC[C@H]2[C@@H]1[C@H](c1cccc(Cl)c1F)[C@]1(C(=O)Nc3cc(I)ccc31)N2CC1CC1` [Compound I-25] showed an IC50 of 0.324 µM.

Consider `O=C1OCC[C@H]2[C@@H]1[C@H](c1cccc(Cl)c1F)[C@]1(C(=O)Nc3cc(Cl)ccc31)N2CC1CC1` [Compound I-37], for which half-maximal inhibition (IC50) was put at 0.292 µM.

In turn, `O=C1NC[C@H]2[C@@H]1[C@H](c1cccc(Cl)c1F)[C@]1(C(=O)Nc3cc(Cl)ccc31)N2CC1CC1` [Compound I-39] came in with an IC50 of 0.032 µM.

In the case of `O=C1NC[C@H]2[C@@H]1[C@H](c1cccc(Cl)c1F)[C@]1(C(=O)Nc3cc(Cl)ccc31)N2CC1CC1` [Compound I-40], the IC50 was 0.033 µM.

For the molecule `CCOc1cccc(CN2[C@H]3CNC(=O)[C@H]3[C@H](c3cccc(Cl)c3F)[C@]23C(=O)Nc2cc(Cl)ccc23)c1` [Compound I-43], 0.008 µM corresponded to half-maximal inhibition (IC50).

Molecule `COC(=O)c1ccc(N2CC[C@H]3[C@@H](C2=O)[C@H](c2cccc(Cl)c2F)[C@]2(C(=O)Nc4cc(Cl)ccc42)N3CC2CC2)cc1` [Compound I-63] displayed an IC50 of 0.103 µM.

Molecule `COC(=O)c1ccc(N2CC[C@H]3[C@@H](C2=O)[C@H](c2cccc(Cl)c2F)[C@]2(C(=O)Nc4cc(Cl)ccc42)N3CC2CC2C)cc1` (stereo partly drawn) [Compound I-69] came in with an IC50 of 0.447 µM.

Molecule `CCOc1cccc(CN2[C@H]3CCN(c4ccc(C(=O)OC)cc4)C(=O)[C@H]3[C@H](c3cccc(Cl)c3F)[C@]23C(=O)Nc2cc(Cl)ccc23)c1` [Compound I-71] came in with an IC50 of 0.068 µM.

Consider `O=C1[C@@H]2[C@H](CCN1c1ccc(-c3nnn[nH]3)cc1)N(CC1CC1)[C@@]1(C(=O)Nc3cc(Cl)ccc31)[C@H]2c1cccc(Cl)c1F` [Compound I-72], for which the midpoint of inhibition, the IC50, lay at 0.017 µM.

With `CC(C)(C)CN1[C@H]2CCN(c3ccc(S(C)(=O)=O)cc3)C(=O)[C@H]2[C@H](c2cccc(Cl)c2F)[C@]12C(=O)Nc1cc(Cl)ccc12` [Compound I-74], the IC50 was 0.342 µM.

`CS(=O)(=O)c1ccc(N2CC[C@H]3[C@@H](C2=O)[C@H](c2cccc(Cl)c2F)[C@]2(C(=O)Nc4cc(Cl)ccc42)N3CC2CC2)cc1` [Compound I-76] yielded an IC50 of 0.042 µM.

`CC1CC1CN1[C@H]2CCN(c3ccc(S(C)(=O)=O)cc3)C(=O)[C@H]2[C@H](c2cccc(Cl)c2F)[C@]12C(=O)Nc1cc(Cl)ccc12` (stereo partly drawn) [Compound I-78] had a 50% inhibitory concentration (IC50) of 0.12 µM.

The molecule `CNS(=O)(=O)c1ccc(N2CC[C@H]3[C@@H](C2=O)[C@H](c2cccc(Cl)c2F)[C@]2(C(=O)Nc4cc(Cl)ccc42)N3CC2CC2)cc1` [Compound I-80] gave an IC50 of 0.093 µM.

The molecule `COC(=O)c1ccc(N2CC[C@H]3[C@@H](C2=O)[C@H](c2cccc(Cl)c2F)[C@]2(C(=O)Nc4cc(Cl)ccc42)N3CC2CC2C)c(OC)c1` (stereo partly drawn) [Compound I-82] showed an IC50 of 1.02 µM.

In turn, `COC(=O)c1ccc(N2CC[C@H]3[C@@H](C2=O)[C@H](c2cccc(Cl)c2F)[C@]2(C(=O)Nc4cc(Cl)ccc42)N3CC2CC2C)c(F)c1` (stereo partly drawn) [Compound I-84] yielded a 50% inhibitory concentration (IC50) of 1.18 µM.

`N#Cc1ccc(N2CC[C@H]3[C@@H](C2=O)[C@H](c2cccc(Cl)c2F)[C@]2(C(=O)Nc4cc(Cl)ccc42)N3CC2CC2)cc1` [Compound I-86] registered a 50% inhibitory concentration (IC50) of 0.159 µM.

In the case of `COCc1cc(N2CC[C@H]3[C@@H](C2=O)[C@H](c2cccc(Cl)c2F)[C@]2(C(=O)Nc4cc(Cl)ccc42)N3CC2CC2)ccn1` [Compound I-90], the IC50 came to 0.124 µM.

`O=C1[C@@H]2[C@H](CCN1c1ccncc1)N(CC1CC1)[C@@]1(C(=O)Nc3cc(Cl)ccc31)[C@H]2c1cccc(Cl)c1F` [Compound I-92] returned an IC50 of 0.193 µM.

Consider `CCOc1cccc(CN2[C@@H]3CCN(c4ccc(C(=O)OC)cc4)C(=O)[C@@H]3[C@@H](c3cccc(Cl)c3F)[C@@]23C(=O)Nc2cc(Cl)ccc23)c1` [Compound I-112], for which the IC50 came to 3.29 µM.

Take `COC(=O)c1ccc(N2C[C@H]3[C@@H](C2=O)[C@H](c2cccc(Cl)c2F)[C@]2(C(=O)Nc4cc(Cl)ccc42)N3CC2CC2)cc1` [Compound I-123]: the IC50 is 0.038 µM.

In the case of `COC(=O)c1ccc(N2C[C@H]3[C@@H](C2=O)[C@H](c2cccc(Cl)c2F)[C@]2(C(=O)Nc4cc(Cl)ccc42)N3CC2CC2)c(OC)c1` [Compound I-125], it took 0.347 µM to reach half-maximal inhibition (IC50).

`O=C(O)c1ccc(N2CC[C@H]3[C@@H](C2=O)[C@H](c2cccc(Cl)c2F)[C@]2(C(=O)Nc4cc(Cl)ccc42)N3CC2CC2)cc1` [Compound I-170]: the IC50 was determined as 0.011 µM.

The molecule `O=C(O)c1ccc(N2CC[C@H]3[C@@H](C2=O)[C@H](c2cccc(Cl)c2F)[C@]2(C(=O)Nc4cc(Cl)ccc42)N3CC2CC2)cc1` [Compound I-171] came in with an IC50 of 0.004 µM.

Take `O=C(O)c1ccc(N2CC[C@@H]3[C@H](C2=O)[C@@H](c2cccc(Cl)c2F)[C@@]2(C(=O)Nc4cc(Cl)ccc42)N3CC2CC2)cc1` [Compound I-172]: half-maximal inhibition (IC50) was put at 0.302 µM.

As for `O=C(O)c1ccc(N2CC[C@H]3[C@@H](C2=O)[C@H](c2cccc(Cl)c2F)[C@]2(C(=O)Nc4cc(Cl)c(F)cc42)N3CC2CC2)cc1` [Compound I-173], the IC50 came out at 0.029 µM.

In turn, `O=C(O)c1cccc(N2CC[C@H]3[C@@H](C2=O)[C@H](c2cccc(Cl)c2F)[C@]2(C(=O)Nc4cc(Cl)ccc42)N3CC2CC2)c1` [Compound I-175] returned an IC50 of 2.13 µM.

The molecule `O=C(O)c1ccc(N2CC[C@H]3[C@@H](C2=O)[C@H](c2cccc(Cl)c2)[C@]2(C(=O)Nc4cc(Cl)ccc42)N3CC2CC2)cc1` [Compound I-177] displayed a concentration for half-maximal inhibition (IC50) of 0.016 µM.

Turning to `COc1cc(C(=O)O)ccc1N1CC[C@H]2[C@@H](C1=O)[C@H](c1cccc(Cl)c1F)[C@]1(C(=O)Nc3cc(Cl)ccc31)N2CC1CC1` [Compound I-179], the IC50 was 0.071 µM.

The molecule `COc1cc(C(=O)O)ccc1N1CC[C@H]2[C@@H](C1=O)[C@H](c1cccc(Cl)c1)[C@]1(C(=O)Nc3cc(Cl)ccc31)N2CC1CC1` [Compound I-181] yielded an IC50 of 0.092 µM.

Turning to `O=C(O)c1ccc(N2CC[C@H]3[C@@H](C2=O)[C@H](c2cccc(Cl)c2F)[C@]2(C(=O)Nc4cc(Cl)ccc42)N3CC2CC2)cn1` [Compound I-183], half-maximal inhibition (IC50) was put at 0.01 µM.

`CCOc1cccc(CN2[C@H]3CCN(c4ccc(C(=O)O)cc4)C(=O)[C@H]3[C@H](c3cccc(Cl)c3F)[C@]23C(=O)Nc2cc(Cl)ccc23)c1` [Compound I-185]: the IC50 came to 0.003 µM.

With `CCOc1cccc(CN2[C@H]3CCN(c4ccc(C(=O)O)cc4)C(=O)[C@H]3[C@H](c3cccc(Cl)c3F)[C@]23C(=O)Nc2cc(Cl)ccc23)c1` [Compound I-186], half-maximal inhibition (IC50) was put at 0.002 µM.

On to `CCOc1cccc(CN2[C@H]3CCN(c4ccc(C(=O)O)cc4[N+](=O)[O-])C(=O)[C@H]3[C@H](c3cccc(Cl)c3F)[C@]23C(=O)Nc2cc(Cl)ccc23)c1` [Compound I-188], for which the IC50 was 0.016 µM.

On to `CC1CC1CN1[C@H]2CCN(c3ccc(C(=O)O)cc3F)C(=O)[C@H]2[C@H](c2cccc(Cl)c2F)[C@]12C(=O)Nc1cc(Cl)ccc12` (stereo partly drawn) [Compound I-190], for which the midpoint of inhibition, the IC50, lay at 0.045 µM.

As for `O=C(O)c1ccc(N2CC[C@H]3[C@@H](C2=O)[C@H](c2cccc(Cl)c2F)[C@]2(C(=O)Nc4cc(Cl)ccc42)N3CC2CC2)c([N+](=O)[O-])c1` [Compound I-192], the midpoint of inhibition, the IC50, lay at 0.04 µM.

Turning to `COc1cc(C(=O)O)ccc1N1CC[C@H]2[C@@H](C1=O)[C@H](c1cccc(Cl)c1F)[C@]1(C(=O)Nc3cc(Cl)ccc31)N2CC1CC1C` (stereo partly drawn) [Compound I-194], the 50% inhibitory concentration (IC50) worked out at 0.114 µM.

For the molecule `CC1CC1CN1[C@H]2CCN(c3ccc(C(=O)O)cc3)C(=O)[C@H]2[C@H](c2cccc(Cl)c2F)[C@]12C(=O)Nc1cc(Cl)ccc12` (stereo partly drawn) [Compound I-196], inhibition was half-maximal at 0.02 µM (IC50).

In turn, `O=C(O)c1ccc(N2CC[C@H]3[C@@H](C2=O)[C@H](c2cccc(Cl)c2F)[C@]2(C(=O)Nc4cc(Cl)ccc42)N3CC2CCC2)cc1` [Compound I-198] showed an IC50 of 0.027 µM.
